In PubChem BioAssay (NCI):
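Method: 48-hour compound exposure of cells in 96-well plates, five concentrations, linear interpolation of endpoints. GI50 = concentration required for 50% inhibition of growth. TGI: concentration producing complete growth inhibition.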

Columns and labels:
Assay in all cases: NCI-60 cell line screen, 48 h
[1] = system: 786-0 renal
[2] = system: A498 renal
[3] = system: HL-60(TB) leukemia
[4] = system: NCI-H23 lung
[5] = system: NCI-H522 lung
[6] = system: SF-295 CNS
[7] = system: HOP-62 NSCLC
[8] = system: MDA-MB-231 breast
[9] = system: MDA-MB-435
[10] = system: SF-539 CNS

`Nc1c(-c2cn(Cc3ccccc3)c3ccccc23)[n+]([O-])c2ccccc2[n+]1[O-]` gave a TGI [1] of over 100 µM, a TGI [2] of 41.9 µM and a TGI [3] of 42.6 µM. It also gave a TGI [4] of 93.6 µM, a TGI [5] of 48.6 µM and a TGI [6] of 88.7 µM.

For `CCOC(=O)C1=C(C)N=c2s/c(=C\c3ccccc3O)c(=O)n2C1c1ccc(OC)c2ccccc12` (centres undefined), the GI50 [1] was 2.59 µM, the TGI [1] was 10.3 µM and the GI50 [3] was 38.6 µM. The TGI [3] was over 100 µM, the GI50 [7] was 4.65 µM and the TGI [7] was 14.6 µM. For the same compound, the GI50 [8] was 2.69 µM, the TGI [8] was 6.79 µM and the GI50 [9] was 13.1 µM. The TGI [9] was over 100 µM, the GI50 [4] was 7.72 µM and the TGI [4] was 30.7 µM. For the same compound, the GI50 [5] was 13.4 µM, the TGI [5] was 44.3 µM and the GI50 [6] was 13.3 µM. It also gave a TGI [6] of 30 µM, a GI50 [10] of 1.76 µM and a TGI [10] of 3.67 µM.

In the case of `C=CC(=O)NCCSCCCOC1(C(=O)O)CC(O)C(NC(C)=O)C(C(O)C(O)CO)O1` (centres undefined), the TGI [1] was over 100 µM, the TGI [3] was over 100 µM and the TGI [4] was over 100 µM. The TGI [5] was over 100 µM, the TGI [6] was over 100 µM and the TGI [10] was over 100 µM.

`COc1ccc2c(c1)[n+]([O-])c(-c1ccc([N+](=O)[O-])cc1)c(N)[n+]2[O-]` gave a TGI [1] of over 100 µM, a TGI [2] of over 100 µM and a TGI [3] of over 100 µM. For the same compound, the TGI [7] was over 100 µM, the TGI [4] was over 100 µM and the TGI [5] was 32.9 µM. For the same compound, the TGI [6] was over 100 µM and the TGI [10] was over 100 µM.

Compound `O=C1c2[nH]cc(CNC3CN4CCC3CC4)c2C(=O)c2c1c(O)c1ccccc1c2O` (centres undefined) has a GI50 [1] of 2.53 µM, a TGI [1] of 8.65 µM and a TGI [2] of 1.72 µM. The GI50 [7] was 1.11 µM, the TGI [7] was 2.43 µM and the GI50 [8] was 1.41 µM. It also gave a TGI [8] of 3.09 µM, a GI50 [9] of 1.4 µM and a TGI [9] of 2.76 µM. For the same compound, the GI50 [6] was 2.05 µM, the TGI [6] was 3.62 µM and the GI50 [10] was 1.94 µM. For the same compound, the TGI [10] was 3.61 µM.

Compound `O=S(=O)([O-])c1ccc(N=Cc2ccccc2[O-])cc1.O=S(=O)([O-])c1ccc(N=Cc2ccccc2[O-])cc1.[O]=[U+2]=[O]` has a GI50 [1] of 42.7 µM, a TGI [1] of over 100 µM and a GI50 [2] of over 100 µM. For the same compound, the TGI [2] was over 100 µM, the GI50 [7] was 81.7 µM and the TGI [7] was over 100 µM. For the same compound, the GI50 [4] was over 100 µM, the TGI [4] was over 100 µM and the GI50 [5] was over 100 µM. It also gave a TGI [5] of over 100 µM, a GI50 [6] of over 100 µM and a TGI [6] of over 100 µM. For the same compound, the GI50 [10] was 54.7 µM and the TGI [10] was over 100 µM.

`CC[C@H]1CN2CCc3cc(OC)c(OC)cc3C2C[C@@H]1CC1NCCc2cc(OC)c(OC)cc21` (some centres undefined) gave a TGI [1] of 0.128 µM, a TGI [2] of 0.313 µM and a GI50 [3] of 0.0204 µM. The TGI [3] was 0.144 µM, the TGI [7] was 0.0815 µM and the TGI [8] was 0.0994 µM. The GI50 [9] was 0.0161 µM, the TGI [9] was 0.112 µM and the TGI [4] was 0.0916 µM. For the same compound, the GI50 [5] was 0.0127 µM and the TGI [5] was 0.0354 µM.

`Cc1cc([N+](=O)[O-])ccc1Sc1c2ccccc2nc2cc(Cl)ccc12` gave a TGI [1] of over 100 µM, a TGI [2] of over 100 µM and a TGI [3] of 51 µM. For the same compound, the TGI [7] was over 100 µM, the TGI [4] was 76.9 µM and the TGI [5] was 78.7 µM. It also gave a TGI [6] of over 100 µM and a TGI [10] of 57.6 µM.

Compound `COc1ccccc1NC(=O)C1=C(C)NC(C)=C(C(=O)Nc2ccccc2OC)C1C1=CC=COC1` has a TGI [1] of over 100 µM, a TGI [2] of 45.4 µM and a TGI [3] of 10.7 µM. It also gave a TGI [7] of over 100 µM, a TGI [4] of over 100 µM and a TGI [6] of 40.7 µM. It also gave a TGI [10] of 30.7 µM.

With `CCC(CC)c1nc(Nc2ccc(C(=O)OC)cc2)c2ccccc2n1` the GI50 [1] was 10.9 µM, the TGI [1] was 26.5 µM and the GI50 [3] was 8.17 µM. The TGI [3] was 26 µM, the GI50 [7] was 10.4 µM and the TGI [7] was 21.6 µM. It also gave a GI50 [8] of 8.59 µM, a TGI [8] of 22.8 µM and a GI50 [9] of over 18.3 µM. The TGI [9] was over 25.6 µM, the GI50 [4] was 15.5 µM and the TGI [4] was over 37.4 µM. For the same compound, the GI50 [5] was 8.65 µM, the TGI [5] was 18.4 µM and the GI50 [6] was over 18.8 µM. It also gave a TGI [6] of over 26 µM, a GI50 [10] of over 20.5 µM and a TGI [10] of over 28.6 µM.
